CCN(C)C(=S)Nc1cc(C)c(Oc2cccc(C(C)(C)C)c2)cc1C [Compound 27, N′-(4-{[3-(1,1-dimethylethyl)phenyl]oxy}-2,5-dimethylphenyl)-N-ethyl-N-methylthiourea]
melting point: 125 °C
